# Experimental data reported in US11931424B2, “Combination MCL-1 inhibitors with anti-body drug conjugates” (Gilead Sciences, Inc., priority 2021, dated 2024).
# System: panel of breast cancer cell lines
# Experiment: Compound A with targeted agents and chemotherapies, 72-hour in vitro proliferation assays
# Type: cell-based
# Details: 72-hour proliferation
# [1] = AU565 cell line, compound A × partner
# [2] = BT-20 cell line, compound A × partner
# [3] = BT-474 cell line, compound A × partner
# [4] = BT-549 cell line, compound A × partner
# [5] = CAL-51 cell line, compound A × partner
# [6] = CAL-85-1 cell line, compound A × partner
# [7] = CAL-120 cell line, compound A × partner
# [8] = CAL-148 cell line, compound A × partner
# [9] = CAMA-1 cell line, compound A × partner
# [10] = DU-4475 cell line, compound A × partner
# [11] = EVSA-T cell line, compound A × partner
# [12] = HCC1143 cell line, compound A × partner
# [13] = MCF7 cells, Compound A × partner agent
# [14] = MDA-MB-175-VII cells, Compound A × partner agent
# [15] = MDA-MB-231 cells, Compound A × partner agent
# [16] = MDA-MB-361 cells, Compound A × partner agent
# [17] = MDA-MB-436 cells, Compound A × partner agent
# [18] = MDA-MB-453 cells, Compound A × partner agent
# [19] = MDA-MB-468 cells, Compound A × partner agent
# [20] = SK-BR-3 cells, Compound A × partner agent
# [21] = SUM159PT cells, combination of compound A with the named agent
# [22] = T47D cells, combination of compound A with the named agent
# [23] = ZR-75-1 cells, combination of compound A with the named agent
# [24] = ZR-75-30 cells, combination of compound A with the named agent
structure (smiles),measurement,setting,value
N.N.O=C([O-])C1(C(=O)[O-])CCC1.[Pt+2] [Carboplatin],Best CI,[1],1.10
same,Bliss Volume,[1],6.93
same,HSA volume,[1],−0.68
same,Loewe Volume,[1],−0.04
same,Synergy Score,[1],3.68
same,Best CI,[2],0.66
same,Bliss Volume,[2],7.81
same,HSA volume,[2],1.55
same,Loewe Volume,[2],−0.31
same,Synergy Score,[2],5.46
same,Best CI,[3],1.30
same,Bliss Volume,[3],−3.87
same,HSA volume,[3],−5.02
same,Loewe Volume,[3],−4.61
same,Synergy Score,[3],2.18
same,Best CI,[4],1.30
same,Bliss Volume,[4],6.55
same,HSA volume,[4],4.24
same,Loewe Volume,[4],4.88
same,Synergy Score,[4],5.26
same,Best CI,[5],0.89
same,Bliss Volume,[5],2.81
same,HSA volume,[5],2.17
same,Loewe Volume,[5],2.97
same,Synergy Score,[5],5.53
same,Best CI,[6],1.11
same,Bliss Volume,[6],4.84
same,HSA volume,[6],3.68
same,Loewe Volume,[6],3.42
same,Synergy Score,[6],4.18
same,Best CI,[7],0.58
same,Bliss Volume,[7],−0.19
same,HSA volume,[7],−1.52
same,Loewe Volume,[7],−0.25
same,Synergy Score,[7],0.49
same,Best CI,[8],0.27
same,Bliss Volume,[8],11.40
same,HSA volume,[8],12.06
same,Loewe Volume,[8],11.89
same,Synergy Score,[8],24.09
same,Best CI,[9],0.46
same,Bliss Volume,[9],9.50
same,HSA volume,[9],6.02
same,Loewe Volume,[9],6.21
same,Synergy Score,[9],12.48
same,Best CI,[10],0.76
same,Bliss Volume,[10],10.04
same,HSA volume,[10],7.26
same,Loewe Volume,[10],6.59
same,Synergy Score,[10],8.88
same,Best CI,[11],0.84
same,Bliss Volume,[11],9.55
same,HSA volume,[11],−0.13
same,Loewe Volume,[11],−0.33
same,Synergy Score,[11],4.72
same,Best CI,"HCC38, compound A × partner",0.63
same,Best CI Level,"HCC38, compound A × partner",130
same,Bliss Volume,"HCC38, compound A × partner",5.43
same,HSA volume,"HCC38, compound A × partner",5.68
same,Loewe Volume,"HCC38, compound A × partner",3.81
same,Synergy Score,"HCC38, compound A × partner",9.07
same,Best CI,"HCC70, compound A × partner",0.31
same,Best CI Level,"HCC70, compound A × partner",60
same,Bliss Volume,"HCC70, compound A × partner",12.67
same,HSA volume,"HCC70, compound A × partner",3.84
same,Loewe Volume,"HCC70, compound A × partner",3.02
same,Synergy Score,"HCC70, compound A × partner",7.72
same,Best CI,[12],0.82
same,Bliss Volume,[12],−4.47
same,HSA volume,[12],−2.24
same,Loewe Volume,[12],−2.60
same,Synergy Score,[12],3.59
same,Best CI,"HCC1569, compound A × partner",0.43
same,Best CI Level,"HCC1569, compound A × partner",30
same,Bliss Volume,"HCC1569, compound A × partner",4.84
same,HSA volume,"HCC1569, compound A × partner",2.05
same,Loewe Volume,"HCC1569, compound A × partner",2.91
same,Synergy Score,"HCC1569, compound A × partner",2.85
same,Best CI,"HCC1806, compound A × partner",0.33
same,Best CI Level,"HCC1806, compound A × partner",80
same,Bliss Volume,"HCC1806, compound A × partner",11.43
same,HSA volume,"HCC1806, compound A × partner",4.44
same,Loewe Volume,"HCC1806, compound A × partner",9.76
same,Synergy Score,"HCC1806, compound A × partner",9.06
same,Best CI,"HCC1937, compound A × partner",0.44
same,Best CI Level,"HCC1937, compound A × partner",25
same,Bliss Volume,"HCC1937, compound A × partner",5.97
same,HSA volume,"HCC1937, compound A × partner",3.52
same,Loewe Volume,"HCC1937, compound A × partner",4.56
same,Synergy Score,"HCC1937, compound A × partner",4.59
same,Best CI,"HCC1954, compound A × partner",1.07
same,Best CI Level,"HCC1954, compound A × partner",125
same,Bliss Volume,"HCC1954, compound A × partner",2.26
same,HSA volume,"HCC1954, compound A × partner",2.07
same,Loewe Volume,"HCC1954, compound A × partner",0.71
same,Synergy Score,"HCC1954, compound A × partner",5.12
same,Best CI,"HCC2218, compound A × partner",0.70
same,Best CI Level,"HCC2218, compound A × partner",45
same,Bliss Volume,"HCC2218, compound A × partner",2.59
same,HSA volume,"HCC2218, compound A × partner",0.49
same,Loewe Volume,"HCC2218, compound A × partner",−1.33
same,Synergy Score,"HCC2218, compound A × partner",5.27
same,Best CI,"HDQ-P1, compound A × partner",0.92
same,Best CI Level,"HDQ-P1, compound A × partner",35
same,Bliss Volume,"HDQ-P1, compound A × partner",−3.17
same,HSA volume,"HDQ-P1, compound A × partner",−3.06
same,Loewe Volume,"HDQ-P1, compound A × partner",−3.13
same,Synergy Score,"HDQ-P1, compound A × partner",0.54
same,Best CI,"HMC-1-8, compound A × partner",0.72
same,Best CI Level,"HMC-1-8, compound A × partner",155
same,Bliss Volume,"HMC-1-8, compound A × partner",9.25
same,HSA volume,"HMC-1-8, compound A × partner",4.09
same,Loewe Volume,"HMC-1-8, compound A × partner",3.94
same,Synergy Score,"HMC-1-8, compound A × partner",9.60
same,Best CI,"JIMT-1, compound A × partner",0.96
same,Best CI Level,"JIMT-1, compound A × partner",25
same,Bliss Volume,"JIMT-1, compound A × partner",3.78
same,HSA volume,"JIMT-1, compound A × partner",−0.17
same,Loewe Volume,"JIMT-1, compound A × partner",1.92
same,Synergy Score,"JIMT-1, compound A × partner",0.69
same,Best CI,"KPL-1, compound A × partner",0.89
same,Best CI Level,"KPL-1, compound A × partner",105
same,Bliss Volume,"KPL-1, compound A × partner",0.04
same,HSA volume,"KPL-1, compound A × partner",1.33
same,Loewe Volume,"KPL-1, compound A × partner",0.65
same,Synergy Score,"KPL-1, compound A × partner",2.66
same,Best CI,[13],0.40
same,Best CI Level,[13],75
same,Bliss Volume,[13],8.40
same,HSA volume,[13],5.66
same,Loewe Volume,[13],4.40
same,Synergy Score,[13],6.10
same,Best CI,[14],0.60
same,Best CI Level,[14],80
same,Bliss Volume,[14],15.45
same,HSA volume,[14],7.97
same,Loewe Volume,[14],12.14
same,Synergy Score,[14],9.73
same,Best CI,[15],0.91
same,Best CI Level,[15],50
same,Bliss Volume,[15],3.11
same,HSA volume,[15],2.11
same,Loewe Volume,[15],3.30
same,Synergy Score,[15],1.89
same,Best CI,[16],0.82
same,Best CI Level,[16],135
same,Bliss Volume,[16],2.52
same,HSA volume,[16],1.01
same,Loewe Volume,[16],1.40
same,Synergy Score,[16],7.41
same,Best CI,[17],1.72
same,Best CI Level,[17],135
same,Bliss Volume,[17],1.31
same,HSA volume,[17],1.06
same,Loewe Volume,[17],1.16
same,Synergy Score,[17],2.53
same,Best CI,[18],1.12
same,Best CI Level,[18],150
same,Bliss Volume,[18],9.75
same,HSA volume,[18],5.44
same,Loewe Volume,[18],6.37
same,Synergy Score,[18],10.04
same,Best CI,[19],0.56
same,Best CI Level,[19],135
same,Bliss Volume,[19],19.05
same,HSA volume,[19],4.48
same,Loewe Volume,[19],3.36
same,Synergy Score,[19],7.68
same,Best CI,[20],0.35
same,Best CI Level,[20],160
same,Bliss Volume,[20],11.97
same,HSA volume,[20],1.74
same,Loewe Volume,[20],1.40
same,Synergy Score,[20],6.87
same,Best CI,[21],0.52
same,Best CI Level,[21],20
same,Bliss Volume,[21],1.33
same,HSA volume,[21],−1.99
same,Loewe Volume,[21],−0.01
same,Synergy Score,[21],0.81
same,Best CI,[22],1.01
same,Best CI Level,[22],30
same,Bliss Volume,[22],0.78
same,HSA volume,[22],−1.67
same,Loewe Volume,[22],0.98
same,Synergy Score,[22],1.42
same,Best CI,[23],0.88
same,Best CI Level,[23],100
same,Bliss Volume,[23],4.99
same,HSA volume,[23],6.14
same,Loewe Volume,[23],6.57
same,Synergy Score,[23],7.91
same,Best CI,[24],0.30
same,Best CI Level,[24],100
same,Bliss Volume,[24],8.34
same,HSA volume,[24],6.81
same,Loewe Volume,[24],5.78
same,Synergy Score,[24],12.96
